Measurements published in publication PMC5218480 (PLoS ONE, 2017).

Tested on: MV-4-11 cells
Assay: Gene expression microarray analysis (Affymetrix PrimeView) and GSEA
Assay type: cell-based, human
Set-up: RFU PODN (11730768_x_at) / Fold change /veh PODN (11730768_x_at) / RFU LINC00158 (11744669_a_at) / Fold change /veh LINC00158 (11744669_a_at) / RFU DUSP10 (11751237_a_at) / Fold change /veh DUSP10 (11751237_a_at) / RFU ID3 (11757404_x_at) / Fold change /veh ID3 (11757404_x_at) / RFU PLEKHG5 (11737974_s_at) / Fold change /veh PLEKHG5 (11737974_s_at) / RFU LRRC4B (11730491_at) / Fold change /veh LRRC4B (11730491_at) / RFU GIMAP4 (11747438_a_at) / Fold change /veh GIMAP4 (11747438_a_at) / RFU KRT8 (11758183_x_at) / Fold change /veh KRT8 (11758183_x_at) / RFU CNN1 (11734310_a_at) / Fold change /veh CNN1 (11734310_a_at) / RFU VPS37D (11726825_at) / Fold change /veh VPS37D (11726825_at) / RFU C10orf10 (11716522_x_at) / Fold change /veh C10orf10 (11716522_x_at) / RFU KIR2DL2 /// KIR2DL4 /// KIR2DL5A /// KIR2DL5B /// KIR2DS1 /// KIR2DS2 /// KIR2DS3 /// KIR2DS4 /// KIR3DL3 /// KIR3DL3 /// KIR3DS1 (11738374_at) / Fold change /veh KIR2DL2 /// KIR2DL4 /// KIR2DL5A /// KIR2DL5B /// KIR2DS1 /// KIR2DS2 /// KIR2DS3 /// KIR2DS4 /// KIR3DL3 /// KIR3DL3 /// KIR3DS1 (11738374_at) / RFU C1QL1 (11718748_at) / Fold change /veh C1QL1 (11718748_at) / RFU TMPRSS4 (11747572_a_at) / Fold change /veh TMPRSS4 (11747572_a_at) / RFU HAMP (11756126_x_at) / Fold change /veh HAMP (11756126_x_at) / RFU RNFT2 (11725882_a_at) / Fold change /veh RNFT2 (11725882_a_at) / RFU NR4A2 (11747474_a_at) / Fold change /veh NR4A2 (11747474_a_at) / RFU ABCC12 (11746883_a_at) / Fold change /veh ABCC12 (11746883_a_at) / RFU TMEM136 (11760407_x_at) / Fold change /veh TMEM136 (11760407_x_at) / RFU CLDN22 /// WWC2 (11732394_at) / Fold change /veh CLDN22 /// WWC2 (11732394_at) / RFU HLA-DPB1 (11760878_x_at) / Fold change /veh HLA-DPB1 (11760878_x_at) / RFU SPINT1 (11716480_a_at) / Fold change /veh SPINT1 (11716480_a_at) / RFU GAP43 (11754022_s_at) / Fold change /veh GAP43 (11754022_s_at) / RFU A4GNT (11735810_at) / Fold change /veh A4GNT (11735810_at) / RFU PRB3 (11715151_x_at) / Fold change /veh PRB3 (11715151_x_at) / RFU TUBB4B (11761932_at) / Fold change /veh TUBB4B (11761932_at) / RFU CAPN14 (11732068_a_at) / Fold change /veh CAPN14 (11732068_a_at) / RFU TMCC2 (11721928_a_at) / Fold change /veh TMCC2 (11721928_a_at) / RFU IRGQ (11745062_a_at) / Fold change /veh IRGQ (11745062_a_at) / RFU FAM174B (11720279_a_at) / Fold change /veh FAM174B (11720279_a_at) / RFU TMPRSS4 (11748680_a_at) / Fold change /veh TMPRSS4 (11748680_a_at) / RFU FAM212B (11763350_a_at) / Fold change /veh FAM212B (11763350_a_at) / RFU PLEKHG5 (11743358_a_at) / Fold change /veh PLEKHG5 (11743358_a_at) / RFU ZSCAN30 (11745921_a_at) / Fold change /veh ZSCAN30 (11745921_a_at) / RFU CMKLR1 (11741424_a_at) / Fold change /veh CMKLR1 (11741424_a_at) / RFU LOC101060620 /// MAPK8IP1 (11723275_at) / Fold change /veh LOC101060620 /// MAPK8IP1 (11723275_at) / RFU SPTSSB (11747773_x_at) / Fold change /veh SPTSSB (11747773_x_at) / RFU PRSS12 (11739890_at) / Fold change /veh PRSS12 (11739890_at) / RFU BIN1 (11741810_x_at) / Fold change /veh BIN1 (11741810_x_at) / RFU WNT11 (11732464_a_at) / Fold change /veh WNT11 (11732464_a_at) / RFU C10orf10 (11716521_a_at) / Fold change /veh C10orf10 (11716521_a_at) / RFU C5orf56 (11738089_at) / Fold change /veh C5orf56 (11738089_at) / RFU CYB561 (11721691_x_at) / Fold change /veh CYB561 (11721691_x_at) / RFU ANKRD19P (11752326_a_at) / Fold change /veh ANKRD19P (11752326_a_at) / RFU OR2T12 /// OR2T33 /// OR2T8 (11738714_s_at) / Fold change /veh OR2T12 /// OR2T33 /// OR2T8 (11738714_s_at) / RFU VCAN (11748164_a_at) / Fold change /veh VCAN (11748164_a_at) / RFU JSRP1 (11732532_at) / Fold change /veh JSRP1 (11732532_at) / RFU KRTAP10-11 (11738290_x_at) / Fold change /veh KRTAP10-11 (11738290_x_at) / RFU MYO3A (11730013_a_at) / Fold change /veh MYO3A (11730013_a_at) / RFU EBF3 (11725865_a_at) / Fold change /veh EBF3 (11725865_a_at) / RFU CAMK2N1 (11719241_x_at) / Fold change /veh CAMK2N1 (11719241_x_at) / RFU C5orf56 (11738088_a_at) / Fold change /veh C5orf56 (11738088_a_at) / RFU OLFML3 (11715873_a_at) / Fold change /veh OLFML3 (11715873_a_at) / RFU LOC100653217 /// NTM (11731650_a_at) / Fold change /veh LOC100653217 /// NTM (11731650_a_at) / RFU MAPK11 (11762145_a_at) / Fold change /veh MAPK11 (11762145_a_at) / RFU FIZ1 (11724087_x_at) / Fold change /veh FIZ1 (11724087_x_at) / RFU OASL (11726364_x_at) / Fold change /veh OASL (11726364_x_at) / RFU SOX15 (11748057_x_at) / Fold change /veh SOX15 (11748057_x_at) / RFU CD79A (11719716_a_at) / Fold change /veh CD79A (11719716_a_at) / RFU HIST1H1D (11736915_at) / Fold change /veh HIST1H1D (11736915_at) / RFU CASKIN2 (11723855_a_at) / Fold change /veh CASKIN2 (11723855_a_at) / RFU LOC730098 (11760151_x_at) / Fold change /veh LOC730098 (11760151_x_at) / RFU OR4N2 (11742367_at) / Fold change /veh OR4N2 (11742367_at) / RFU PRRT2 (11749266_a_at) / Fold change /veh PRRT2 (11749266_a_at) / RFU SNX32 (11753110_a_at) / Fold change /veh SNX32 (11753110_a_at) / RFU CDHR5 (11726645_a_at) / Fold change /veh CDHR5 (11726645_a_at) / RFU RCAN1 (11760418_a_at) / Fold change /veh RCAN1 (11760418_a_at) / RFU FAM167A (11723789_a_at) / Fold change /veh FAM167A (11723789_a_at) / RFU FAM26E (11764081_at) / Fold change /veh FAM26E (11764081_at) / RFU ISYNA1 (11749810_s_at) / Fold change /veh ISYNA1 (11749810_s_at) / RFU ACY1 (11761880_at) / Fold change /veh ACY1 (11761880_at) / RFU 11764098_at / Fold change /veh 11764098_at / RFU SAMD14 (11745864_x_at) / Fold change /veh SAMD14 (11745864_x_at) / RFU NPB (11741838_a_at) / Fold change /veh NPB (11741838_a_at) / RFU TMPRSS6 (11731388_a_at) / Fold change /veh TMPRSS6 (11731388_a_at) / RFU KRTAP10-2 (11738614_at) / Fold change /veh KRTAP10-2 (11738614_at) / RFU ARHGAP8 /// PRR5-ARHGAP8 (11727945_x_at) / Fold change /veh ARHGAP8 /// PRR5-ARHGAP8 (11727945_x_at) / RFU KRTAP5-7 /// NADSYN1 (11734609_at) / Fold change /veh KRTAP5-7 /// NADSYN1 (11734609_at) / RFU RASL12 (11751679_a_at) / Fold change /veh RASL12 (11751679_a_at) / RFU CDKN2B (11736163_a_at) / Fold change /veh CDKN2B (11736163_a_at) / RFU PRF1 (11729649_at) / Fold change /veh PRF1 (11729649_at) / RFU, ZNF638 /// ZNF638-IT1 / Fold change vs veh, ZNF638 /// ZNF638-IT1 / RFU, PANK3 / Fold change vs veh, PANK3 / RFU, SH3YL1 / Fold change vs veh, SH3YL1 / RFU, ZEB2 / Fold change vs veh, ZEB2 / RFU, NRIP1 / Fold change vs veh, NRIP1 / RFU, PTTG1IP / Fold change vs veh, PTTG1IP / RFU, CAPN2 / Fold change vs veh, CAPN2 / RFU, MED14 / Fold change vs veh, MED14 / RFU, SNORA58 / Fold change vs veh, SNORA58 / RFU, C1orf63 / Fold change vs veh, C1orf63 / RFU, LRRFIP1 / Fold change vs veh, LRRFIP1 / RFU, NDUFAF7 / Fold change vs veh, NDUFAF7 / RFU, SLC12A2 / Fold change vs veh, SLC12A2 / RFU, IBTK / Fold change vs veh, IBTK / RFU, ESF1 / Fold change vs veh, ESF1 / Fold change vs veh, TMEM50B / RFU, TAOK1 / Fold change vs veh, TAOK1 / RFU, ACBD3 / Fold change vs veh, ACBD3 / RFU, TMA16 / Fold change vs veh, TMA16 / RFU, RWDD3 / Fold change vs veh, RWDD3 / RFU, BCAT1 / Fold change vs veh, BCAT1 / RFU, EDEM3 / Fold change vs veh, EDEM3 / RFU, TMEM33 / Fold change vs veh, TMEM33 / RFU, WDR75 / Fold change vs veh, WDR75 / RFU, AHCTF1 / Fold change vs veh, AHCTF1 / RFU, TFRC / Fold change vs veh, TFRC / RFU, ZDHHC17 / Fold change vs veh, ZDHHC17 / RFU, NOM1 / Fold change vs veh, NOM1 / RFU, ARL8B / Fold change vs veh, ARL8B / RFU, ZBTB11 / Fold change vs veh, ZBTB11 / RFU, TAMM41 / Fold change vs veh, TAMM41 / RFU, KIAA1704 /// LOC100996395 / Fold change vs veh, KIAA1704 /// LOC100996395 / RFU, ING1 / Fold change vs veh, ING1 / RFU, TRMT61B / Fold change vs veh, TRMT61B / RFU, FUBP3 / Fold change vs veh, FUBP3 / RFU, TP53 / Fold change vs veh, TP53 / RFU, TNKS2 / Fold change vs veh, TNKS2 / RFU, ZFP14 / Fold change vs veh, ZFP14 / RFU, ACTR2 / Fold change vs veh, ACTR2 / RFU, PPP3R1 / Fold change vs veh, PPP3R1 / RFU, PIK3R1 / Fold change vs veh, PIK3R1 / RFU, HNRNPA1 / Fold change vs veh, HNRNPA1 / RFU, RNF170 / Fold change vs veh, RNF170 / RFU, ZNF28 / Fold change vs veh, ZNF28 / RFU, RNGTT / Fold change vs veh, RNGTT / RFU, OGT / Fold change vs veh, OGT / RFU, BRD1 / Fold change vs veh, BRD1 / RFU, MARS / Fold change vs veh, MARS / RFU, ZNF655 / Fold change vs veh, ZNF655 / RFU, FAHD1 / Fold change vs veh, FAHD1 / RFU, BDP1 / Fold change vs veh, BDP1 / RFU, LRRCC1 / Fold change vs veh, LRRCC1 / RFU, ARID1A / Fold change vs veh, ARID1A / RFU, ZNF146 / Fold change vs veh, ZNF146 / RFU, ZNF330 / Fold change vs veh, ZNF330 / RFU, GPN3 / Fold change vs veh, GPN3 / RFU, C9orf123 / Fold change vs veh, C9orf123 / RFU, N4BP2L2 / Fold change vs veh, N4BP2L2 / RFU, ARFIP1 / Fold change vs veh, ARFIP1 / RFU, FAM179B / Fold change vs veh, FAM179B / RFU, BCL10 / Fold change vs veh, BCL10 / RFU, UHRF1BP1L / Fold change vs veh, UHRF1BP1L / RFU, BET1 / Fold change vs veh, BET1 / RFU, CNOT2 / Fold change vs veh, CNOT2 / RFU, ZNF268 / Fold change vs veh, ZNF268 / Fold change vs veh, ZNF507 / RFU, DGCR2 / Fold change vs veh, DGCR2 / RFU, WDSUB1 / Fold change vs veh, WDSUB1 / Fold change vs veh, HSP90B1 /// MIR3652 / RFU, ADSS / Fold change vs veh, ADSS / RFU, GK / Fold change vs veh, GK / RFU, ZNF148 / Fold change vs veh, ZNF148 / RFU, TAF9 / Fold change vs veh, TAF9 / RFU, SLC1A5 / Fold change vs veh, SLC1A5 / RFU, SLMO2 / Fold change vs veh, SLMO2 / RFU, ABCC4 / Fold change vs veh, ABCC4 / RFU, LOC101060439 /// RAP1B / Fold change vs veh, LOC101060439 /// RAP1B / RFU, RFX7 / Fold change vs veh, RFX7 / RFU, GTPBP10 / Fold change vs veh, GTPBP10 / RFU, CNEP1R1 / Fold change vs veh, CNEP1R1 / RFU, BIVM-ERCC5 /// ERCC5 / Fold change vs veh, BIVM-ERCC5 /// ERCC5 / RFU, ILF3 / Fold change vs veh, ILF3 / RFU 11762660_at / Fold change /veh 11762660_at / RFU VCAN (11757783_s_at) / Fold change /veh VCAN (11757783_s_at) / RFU DDX43 (11728927_at) / Fold change /veh DDX43 (11728927_at) / RFU KRT8 (11758188_x_at) / Fold change /veh KRT8 (11758188_x_at) / RFU NKD1 (11759106_at) / Fold change /veh NKD1 (11759106_at) / RFU SRD5A1 (11742802_a_at) / Fold change /veh SRD5A1 (11742802_a_at) / RFU TPSAB1 /// TPSB2 (11721975_s_at) / Fold change /veh TPSAB1 /// TPSB2 (11721975_s_at) / RFU GSTM3 (11746129_a_at) / Fold change /veh GSTM3 (11746129_a_at) / RFU IL23R (11737362_x_at) / Fold change /veh IL23R (11737362_x_at) / RFU TMEM51 (11727254_a_at) / Fold change /veh TMEM51 (11727254_a_at) / RFU PIWIL2 (11732686_x_at) / Fold change /veh PIWIL2 (11732686_x_at) / RFU ORM1 (11744905_x_at) / Fold change /veh ORM1 (11744905_x_at) / RFU CCDC152 (11743942_at) / Fold change /veh CCDC152 (11743942_at) / RFU ECM1 (11717891_a_at) / Fold change /veh ECM1 (11717891_a_at) / RFU IL23R (11748794_a_at) / Fold change /veh IL23R (11748794_a_at) / RFU TNFAIP8L3 (11732012_x_at) / Fold change /veh TNFAIP8L3 (11732012_x_at) / RFU MBOAT4 (11741988_at) / Fold change /veh MBOAT4 (11741988_at) / RFU 11764193_at / Fold change /veh 11764193_at / RFU TMEM53 (11763286_at) / Fold change /veh TMEM53 (11763286_at) / RFU MAGEB2 (11727129_at) / Fold change /veh MAGEB2 (11727129_at) / RFU TMEM200A (11744735_a_at) / Fold change /veh TMEM200A (11744735_a_at) / RFU CCDC152 (11751479_a_at) / Fold change /veh CCDC152 (11751479_a_at) / RFU FAM211A (11726209_a_at) / Fold change /veh FAM211A (11726209_a_at) / RFU RGS16 (11746705_a_at) / Fold change /veh RGS16 (11746705_a_at) / RFU VCAN (11755009_s_at) / Fold change /veh VCAN (11755009_s_at) / RFU RHOB (11743442_s_at) / Fold change /veh RHOB (11743442_s_at) / RFU RGS16 (11720943_a_at) / Fold change /veh RGS16 (11720943_a_at) / RFU RGS16 (11720944_at) / Fold change /veh RGS16 (11720944_at) / RFU, VPS4B / Fold change vs veh, VPS4B / RFU, CREB1 / Fold change vs veh, CREB1 / RFU, DNAJC13 / Fold change vs veh, DNAJC13 / RFU, GNAQ / Fold change vs veh, GNAQ / RFU, CDK5R1 / Fold change vs veh, CDK5R1 / RFU, ZRANB3 / Fold change vs veh, ZRANB3 / RFU, CUL4A / Fold change vs veh, CUL4A / RFU, CCNY / Fold change vs veh, CCNY / RFU, UFL1 / Fold change vs veh, UFL1 / RFU, COG3 / Fold change vs veh, COG3 / RFU, DIAPH2 / Fold change vs veh, DIAPH2 / RFU, SKA2 / Fold change vs veh, SKA2 / RFU, AFF3 / Fold change vs veh, AFF3 / RFU, LMF1 / Fold change vs veh, LMF1 / RFU, IPO11 / Fold change vs veh, IPO11 / RFU, DFFB / Fold change vs veh, DFFB / RFU, FOXP1 / Fold change vs veh, FOXP1 / RFU, CARD8 / Fold change vs veh, CARD8 / RFU, STRN3 / Fold change vs veh, STRN3 / RFU, ADK / Fold change vs veh, ADK / RFU, RASSF2 / Fold change vs veh, RASSF2 / RFU, WIPF1 / Fold change vs veh, WIPF1 / RFU, LARP1B / Fold change vs veh, LARP1B / RFU, RASA1 / Fold change vs veh, RASA1 / RFU, RB1 / Fold change vs veh, RB1 / RFU, PPFIA1 / Fold change vs veh, PPFIA1 / RFU, MAT2A / Fold change vs veh, MAT2A / RFU, CCT5 / Fold change vs veh, CCT5 / RFU, WDR92 / Fold change vs veh, WDR92 / RFU, CUX1 / Fold change vs veh, CUX1 / RFU, TTC7A / Fold change vs veh, TTC7A / RFU, TMEM135 / Fold change vs veh, TMEM135 / RFU, DEPTOR / Fold change vs veh, DEPTOR / RFU, CPM / Fold change vs veh, CPM / RFU, DNAJB6 / Fold change vs veh, DNAJB6 / RFU, CACNA2D3 / Fold change vs veh, CACNA2D3 / RFU, DTX4 / Fold change vs veh, DTX4 / RFU, TFCP2 / Fold change vs veh, TFCP2 / RFU, GMCL1 /// GMCL1P1 / Fold change vs veh, GMCL1 /// GMCL1P1 / RFU, AEBP2 / Fold change vs veh, AEBP2 / RFU, SNHG1 /// SNORD22 /// SNORD25 /// SNORD26 /// SNORD27 /// SNORD28 /// SNORD29 /// SNORD31 / Fold change vs veh, SNHG1 /// SNORD22 /// SNORD25 /// SNORD26 /// SNORD27 /// SNORD28 /// SNORD29 /// SNORD31 / Fold change (Aza/veh), C12orf56 (ProbeSet 11735607_a_at) / Fold change (ACY-1035/veh), C12orf56 (ProbeSet 11735607_a_at) / Fold change (Aza/veh), FGFR1OP (ProbeSet 11751329_s_at) / Fold change (ACY-1035/veh), FGFR1OP (ProbeSet 11751329_s_at) / Fold change (Aza/veh), VPS36 (ProbeSet 11739960_a_at) / Fold change (ACY-1035/veh), VPS36 (ProbeSet 11739960_a_at) / RFU SYPL1 (11715823_x_at) / Fold change /veh SYPL1 (11715823_x_at) / RFU IGFBP7 (11715501_s_at) / Fold change /veh IGFBP7 (11715501_s_at) / RFU REEP3 (11722064_at) / Fold change /veh REEP3 (11722064_at) / RFU IGLL1 (11728026_x_at) / Fold change /veh IGLL1 (11728026_x_at): dose or concentration left out as unconfirmed
Details: MV-4-11 cells, 48 hours

Structure (SMILES): Nc1ncn([C@@H]2O[C@H](CO)[C@@H](O)[C@H]2O)c(=O)n1 [azacitidine]
- RFU NPB (11741838_a_at): 80.08 RFU
